Here are results for eleven molecules from PubChem BioAssay (NCI).

Where “and” joins values, the source holds several entries; their conditions need not be identical. Equal values may be shown once.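 Step 1: Grow cells in 96-well plates. Step 2: Expose to compound for 48 hours at 5 concentrations. Step 3: Interpolate endpoints linearly; if unreached, use highest concentration. The concentration for 50% growth inhibition is given as GI50. Definition used: TGI = concentration required for complete inhibition of growth.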 Bounds are passed on as bounds.

Some test systems named below: DLD-1 colon; RXF-631 renal; M19-MEL melanoma; DMS 114 small cell lung; HOP-18 NSCLC; XF 498 CNS; SN12K1 renal; P388 leukemia; SNB-78 CNS; P388/ADR leukemia.
What all share (assay): NCI tumour cell line growth inhibition, 48 h

As to `Nc1nn(CC(O)CO)c(=O)s1` (stereo not given), the TGI in the experiment with DLD-1 colon, in the experiment on RXF-631 renal, in the experiment with M19-MEL melanoma, with DMS 114 small cell lung, with HOP-18 NSCLC and in the experiment with XF 498 CNS was > 100 µM in each case.

Consider `C=CC[N+](CCO)(CCO)CCCCCCCCCCCCCCCCCC`, for which the TGI is 20.5 µM in the experiment with SN12K1 renal; 1.21 µM in the experiment with P388 leukemia; 30.2 µM in the experiment on DLD-1 colon; 12.6 µM with SNB-78 CNS; > 49 µM in the experiment with P388/ADR leukemia; 11.9 µM in the experiment on M19-MEL melanoma. In addition, the results for the TGI in the experiment on DMS 114 small cell lung and with HOP-18 NSCLC were 18.4 µM and 21.3 µM, respectively.

For the molecule `N#Cc1ccc(Nc2cnc3ccc(N)cc3n2)cc1`, the TGI with DLD-1 colon, in the experiment with SNB-78 CNS, in the experiment on M19-MEL melanoma, with DMS 114 small cell lung and with XF 498 CNS was > 100 µM in each case.

Consider `C[C@H](N)C(=O)N[C@@H]1[C@H]2C(=C(O)C[C@@H](O)[C@@H]2O)C(=O)O[C@@H]1C`, for which the TGI in the experiment with SN12K1 renal, in the experiment on P388 leukemia, with DLD-1 colon, with P388/ADR leukemia, in the experiment with M19-MEL melanoma and with DMS 114 small cell lung was > 100 µM each time. Also, the TGI with HOP-18 NSCLC and in the experiment on XF 498 CNS was > 100 µM in each case.

Turning to `O=C1C2=C(CCCCC2)C2CCCCC12O` (stereo not given), the TGI with DLD-1 colon, with SNB-78 CNS, with M19-MEL melanoma, in the experiment with DMS 114 small cell lung and in the experiment on XF 498 CNS was > 100 µM throughout.

Consider `C[C@H](CN1CC(=O)NC(=O)C1)N1CC(=O)NC(=O)C1`, for which the TGI in the experiment with SN12K1 renal is > 100 µM; in the experiment on DLD-1 colon, > 100 µM; in the experiment with SNB-78 CNS it was > 100 µM; in the experiment on P388/ADR leukemia it was > 96.4 µM; with M19-MEL melanoma, > 100 µM; with HOP-18 NSCLC it was > 100 µM. Besides, the TGI in the experiment with XF 498 CNS is > 100 µM.

Regarding `C=C1C(=O)O[C@@H]2OC3(C)CCC4C(C)CCC1C42OO3` (stereo not given in full), the TGI in the experiment on SN12K1 renal was 15.6 µM and 15.1 µM; in the experiment on DLD-1 colon, 4.72 µM and 4.65 µM; in the experiment with SNB-78 CNS it was 19.8 µM; in the experiment with P388/ADR leukemia it was 1.2 µM; in the experiment on M19-MEL melanoma, 14.7 µM and 13.9 µM; with HOP-18 NSCLC, 34.5 µM and 30.2 µM. Moreover, the TGI in the experiment with XF 498 CNS is 24.3 µM and 3.88 µM. In addition, the GI50 is 1.02 µM in the experiment on DLD-1 colon; 3.66 µM with SNB-78 CNS; 2.44 µM in the experiment on M19-MEL melanoma; 20.1 µM in the experiment with HOP-18 NSCLC; 12 µM with XF 498 CNS.

Regarding `O=C1OC(c2ccc(Cl)cc2)(c2ccc(Cl)cc2)c2c1ccc1ccccc21`, the TGI in the experiment on DLD-1 colon, with SNB-78 CNS, in the experiment with M19-MEL melanoma, in the experiment on HOP-18 NSCLC and in the experiment with XF 498 CNS was > 100 µM throughout.

Take `N/C(=N\N=C\c1cc2c(cc1Cl)OCO2)NO`: the TGI in the experiment with SN12K1 renal is > 100 µM; in the experiment with P388 leukemia, > 91.9 µM; in the experiment with DLD-1 colon, > 100 µM; with SNB-78 CNS it was > 100 µM; in the experiment on P388/ADR leukemia it was > 81.3 µM; in the experiment with M19-MEL melanoma it was > 100 µM. The TGI was > 100 µM in the experiment on DMS 114 small cell lung, > 100 µM in the experiment with HOP-18 NSCLC and > 34.2 µM in the experiment with XF 498 CNS.

With `CCCCCCCC(=O)OCC(C[As](=O)(O)O)OC(=O)CCCCCCC` (stereo not given), the TGI in the experiment with DLD-1 colon is 30.9 µM; in the experiment with SNB-78 CNS, 44.1 µM; with M19-MEL melanoma it was 32.4 µM; in the experiment on DMS 114 small cell lung, 30.6 µM; in the experiment with HOP-18 NSCLC it was 29.3 µM.

As to `Cc1ccc(S(=O)(=O)C2c3nc4ccccc4cc3-c3nc4ccccc4nc32)cc1` (stereo not given), the TGI in the experiment on DLD-1 colon, in the experiment on SNB-78 CNS, in the experiment with M19-MEL melanoma, in the experiment on DMS 114 small cell lung and with XF 498 CNS was > 100 µM throughout.
